Patent US9206184B2, “Disubstituted benzothienyl-pyrrolotriazines and uses thereof” (BAYER INTELLECTUAL PROPERTY GmbH, priority 2011, dated 2015)

Columns and labels:
human FGFR-3 = human FGFR-3 (Homo sapiens (Human), UniProt P22607); experiment: FGFR-3 kinase assay (TR-FRET); assay type: biochemical; settings: 10 μM ATP; 15 min pre-incubation with enzyme; compounds of the invention
human FGFR-1 = human FGFR-1 (Homo sapiens, UniProt P11362); experiment: FGFR-1 high ATP kinase assay (TR-FRET); assay type: biochemical; settings: 2 mM ATP; 15 min pre-incubation with enzyme; compounds of the invention
Sequence of human FGFR-1 (P11362 22-822 limits assumed): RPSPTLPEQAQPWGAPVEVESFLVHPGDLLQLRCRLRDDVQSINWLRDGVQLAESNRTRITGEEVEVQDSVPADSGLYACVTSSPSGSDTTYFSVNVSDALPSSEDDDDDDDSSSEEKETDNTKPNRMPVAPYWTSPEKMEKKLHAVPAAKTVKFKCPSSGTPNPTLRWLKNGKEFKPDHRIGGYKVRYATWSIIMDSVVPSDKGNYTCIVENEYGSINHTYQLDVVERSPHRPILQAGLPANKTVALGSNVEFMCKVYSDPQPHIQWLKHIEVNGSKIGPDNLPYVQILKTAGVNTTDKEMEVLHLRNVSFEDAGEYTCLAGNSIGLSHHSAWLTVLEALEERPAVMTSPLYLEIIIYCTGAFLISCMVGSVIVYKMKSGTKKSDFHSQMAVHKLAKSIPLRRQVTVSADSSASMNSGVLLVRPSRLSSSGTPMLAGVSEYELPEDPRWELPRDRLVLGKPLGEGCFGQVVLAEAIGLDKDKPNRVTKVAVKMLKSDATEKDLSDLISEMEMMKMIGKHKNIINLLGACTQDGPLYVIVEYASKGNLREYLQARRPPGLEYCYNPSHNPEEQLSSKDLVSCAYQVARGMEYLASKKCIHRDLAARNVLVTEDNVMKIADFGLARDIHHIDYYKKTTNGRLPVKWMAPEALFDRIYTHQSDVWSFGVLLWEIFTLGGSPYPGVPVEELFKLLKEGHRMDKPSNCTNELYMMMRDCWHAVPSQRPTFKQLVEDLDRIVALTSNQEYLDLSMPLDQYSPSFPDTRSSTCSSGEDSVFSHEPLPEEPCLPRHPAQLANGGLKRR

Sequence of human FGFR-3 (P22607 397-806): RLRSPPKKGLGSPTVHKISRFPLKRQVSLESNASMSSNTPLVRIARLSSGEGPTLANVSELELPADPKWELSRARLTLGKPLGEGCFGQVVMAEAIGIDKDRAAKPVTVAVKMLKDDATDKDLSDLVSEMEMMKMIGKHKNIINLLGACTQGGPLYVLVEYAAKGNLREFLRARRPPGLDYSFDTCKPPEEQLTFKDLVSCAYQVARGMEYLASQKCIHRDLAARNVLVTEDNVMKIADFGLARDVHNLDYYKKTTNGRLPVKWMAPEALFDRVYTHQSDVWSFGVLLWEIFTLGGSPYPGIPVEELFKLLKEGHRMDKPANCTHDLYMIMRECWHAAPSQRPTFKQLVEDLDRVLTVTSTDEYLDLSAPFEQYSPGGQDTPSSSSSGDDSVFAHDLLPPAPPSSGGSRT

IC50 (human FGFR-3) [nM] | IC50 (human FGFR-1) [nM] | Compound
2.5 | 3.9 | COc1cc(C)cc2cc(-c3c(CNCC(C)O)c(CN4CCOCC4)n4ncnc(N)c34)sc12 (racemic) [Example 53, rac-1-({[4-Amino-5-(7-methoxy-5-methyl-1-benzothiophen-2-yl)-7-(morpholin-4-ylmethyl)pyrrolo[2,1-f][1,2,4]triazin-6-yl]methyl}amino)propan-2-ol]
10 | 2.5 | COc1cc(C)cc2cc(-c3c(CO)c(CN4CCNC(=O)C4)n4ncnc(N)c34)sc12 [Example 13, 4-{[4-Amino-6-(hydroxymethyl)-5-(7-methoxy-5-methyl-1-benzothiophen-2-yl)pyrrolo[2,1-f]-[1,2,4]triazin-7-yl]methyl}piperazin-2-one]
1 | 1 | CCOCc1c(-c2cc3cc(C)cc(OC)c3s2)c2c(N)ncnn2c1CN1CC[C@](C)(N)C1 [Example 15, 7-{[(3S)-3-Amino-3-methylpyrrolidin-1-yl]methyl}-6-(ethoxymethyl)-5-(7-methoxy-5-methyl-1-benzothiophen-2-yl)pyrrolo[2,1-f][1,2,4]triazin-4-amine]
13 | 4.2 | COc1cc(C)cc2cc(-c3c(COCCO)c(CN4CCNC(=O)C4)n4ncnc(N)c34)sc12 [Example 21, 4-({4-Amino-6-[(2-hydroxyethoxy)methyl]-5-(7-methoxy-5-methyl-1-benzothiophen-2-yl)pyrrolo-[2,1-f][1,2,4]triazin-7-yl}methyl)piperazin-2-one formiate]
5.2 | 0.7 | COc1cc(C)cc2cc(-c3c(COCC4CC4)c(CN4CCNCC4)n4ncnc(N)c34)sc12 [Example 25, 6-[(Cyclopropylmethoxy)methyl]-5-(7-methoxy-5-methyl-1-benzothiophen-2-yl)-7-(piperazin-1-ylmethyl)pyrrolo[2,1-f][1,2,4]triazin-4-amine bis(formiate)]
4.9 | 0.9 | COc1cc(C)cc2cc(-c3c(COC4CCC4)c(CN4CCNCC4)n4ncnc(N)c34)sc12 [Example 26, 6-[(Cyclobutyloxy)methyl]-5-(7-methoxy-5-methyl-1-benzothiophen-2-yl)-7-(piperazin-1-ylmethyl)pyrrolo[2,1-f][1,2,4]triazin-4-amine]
2.5 | 1.6 | COc1cc(C)cc2cc(-c3c(COCC(F)(F)F)c(CN4CCNCC4)n4ncnc(N)c34)sc12 [Example 29, 5-(7-Methoxy-5-methyl-1-benzothiophen-2-yl)-7-(piperazin-1-ylmethyl)-6-[(2,2,2-trifluoroethoxy)methyl]pyrrolo[2,1-f][1,2,4]triazin-4-amine formiate]
7.2 | 1 | COc1cc(C)cc2cc(-c3c(COCC(N)=O)c(CN4CCNCC4)n4ncnc(N)c34)sc12 [Example 33, 2-{[4-Amino-5-(7-methoxy-5-methyl-1-benzothiophen-2-yl)-7-(piperazin-1-ylmethyl)pyrrolo-[2,1-f][1,2,4]triazin-6-yl]methoxy}acetamide]
10.5 | 6 | COc1cc(C)cc2cc(-c3c(COCC(N)=O)c(CN4CCN(C(C)=O)CC4)n4ncnc(N)c34)sc12 [Example 34, 2-({7-[(4-Acetylpiperazin-1-yl)methyl]-4-amino-5-(7-methoxy-5-methyl-1-benzothiophen-2-yl)pyrrolo[2,1-f][1,2,4]triazin-6-yl}methoxy)acetamide]
65.4 | 61.3 | COc1cc(C)cc2cc(-c3c(COc4ccccc4)c(CN4CCNCC4)n4ncnc(N)c34)sc12 [Example 35, 5-(7-Methoxy-5-methyl-1-benzothiophen-2-yl)-6-(phenoxymethyl)-7-(piperazin-1-ylmethyl)pyrrolo[2,1-f][1,2,4]triazin-4-amine bis(formiate)]
3.9 | 4.4 | COc1cc(C)cc2cc(-c3c(CN[C@H]4CCNC4=O)c(CN4CCOCC4)n4ncnc(N)c34)sc12 [Example 51, (3S)-3-({[4-Amino-5-(7-methoxy-5-methyl-1-benzothiophen-2-yl)-7-(morpholin-4-ylmethyl)pyrrolo[2,1-f][1,2,4]triazin-6-yl]methyl}amino)pyrrolidin-2-one]
7 | 9.7 | COc1cc(C)cc2cc(-c3c(CN4CCNC(=O)C4)c(CN4CCOCC4)n4ncnc(N)c34)sc12 [Example 52, 4-{[4-Amino-5-(7-methoxy-5-methyl-1-benzothiophen-2-yl)-7-(morpholin-4-ylmethyl)pyrrolo-[2,1-f][1,2,4]triazin-6-yl]methyl}piperazin-2-one]
6.8 | 11.2 | COc1cc(C)cc2cc(-c3c(CNCC(C)(C)O)c(CN4CCOCC4)n4ncnc(N)c34)sc12 [Example 54, 1-({[4-Amino-5-(7-methoxy-5-methyl-1-benzothiophen-2-yl)-7-(morpholin-4-ylmethyl)pyrrolo-[2,1-f][1,2,4]triazin-6-yl]methyl}amino)-2-methylpropan-2-ol]
2 | 2.4 | COc1cc(C)cc2cc(-c3c(CN[C@@H]4CCNC4=O)c(CN4CCN(C(C)=O)CC4)n4ncnc(N)c34)sc12 [Example 56, (3R)-3-[({7-[(4-Acetylpiperazin-1-yl)methyl]-4-amino-5-(7-methoxy-5-methyl-1-benzothiophen-2-yl)pyrrolo[2,1-f][1,2,4]triazin-6-yl}methyl)amino]pyrrolidin-2-one]
1.8 | 3.2 | COc1cc(C)cc2cc(-c3c(CNCC(C)(C)O)c(CN4CCN(C(C)=O)CC4)n4ncnc(N)c34)sc12 [Example 57, 1-(4-{[4-Amino-6-{[(2-hydroxy-2-methylpropyl)amino]methyl}-5-(7-methoxy-5-methyl-1-benzothiophen-2-yl)pyrrolo[2,1-f][1,2,4]triazin-7-yl]methyl}piperazin-1-yl)ethanone]
9.8 | 6.8 | COc1cc(C)cc2cc(-c3c(CN4CCNC(=O)C4)c(CN4CCN(C=O)CC4)n4ncnc(N)c34)sc12 [Example 58, 4-({4-Amino-5-(7-methoxy-5-methyl-1-benzothiophen-2-yl)-6-[(3-oxopiperazin-1-yl)methyl]-pyrrolo[2,1-f][1,2,4]triazin-7-yl}methyl)piperazine-1-carbaldehyde formiate]
6.8 | 3.8 | COc1cc(C)cc2cc(-c3c(CN4CCNC(=O)C4)c(CN4CCN(C(C)=O)CC4)n4ncnc(N)c34)sc12 [Example 59, 4-({7-[(4-Acetylpiperazin-1-yl)methyl]-4-amino-5-(7-methoxy-5-methyl-1-benzothiophen-2-yl)pyrrolo[2,1-f][1,2,4]triazin-6-yl}methyl)piperazin-2-one]
77.9 | 16.2 | COC(=O)c1c(-c2cc3cc(C)cc(OC)c3s2)c2c(N)ncnn2c1C(=O)N1CCNCC1 [Example 60, Methyl 4-amino-5-(7-methoxy-5-methyl-1-benzothiophen-2-yl)-7-(piperazin-1-ylcarbonyl)pyrrolo-[2,1-f][1,2,4]triazine-6-carboxylate bis(formiate)]

Compound | IC50 (human FGFR-3) [nM] | IC50 (human FGFR-1) [nM]
CCOCc1c(-c2cc3cc(C)cc(OC)c3s2)c2c(N)ncnn2c1CN1CCN(C(C)=O)CC1 [Example 20, 1-(4-{[4-Amino-6-(ethoxymethyl)-5-(7-methoxy-5-methyl-1-benzothiophen-2-yl)pyrrolo[2,1-f]-[1,2,4]triazin-7-yl]methyl}piperazin-1-yl)ethanone] | 26.1 | 25
